# Assay results as given in PMC9154192 (PLoS Biology, 2022).
# Values joined by “and” are separate entries in the source; they are usually repeats but may differ in a detail not shown here. Equal values may be shown once. Read-outs that look alike come from different tables or passages of the source.
# Columns and labels:
# [1] = test system: M. tuberculosis H37Rv; assay: microbe, parasite or virus in culture; format: cell-based, Mycobacterium tuberculosis; settings: for MIC: Mycobacterium tuberculosis, H37RV, read-out: MIC; for SI (CC50/MIC): ratio of CC50 for L929 fibroblasts to MIC for strain H37Rv
# [2] = test system: M. tuberculosis H37Ra; assay: microbe, parasite or virus in culture; format: cell-based, Mycobacterium tuberculosis; settings: Mycobacterium tuberculosis, H37RA
# [3] = format: cell-based; settings: positive control
# [4] = in vitro; format: cell-based, murine; settings: mouse
# Procedure: A549 human pulmonary epithelial cells (KCLB 10185), human embryonic kidney (HEK) 293 cells (KCLB 21573), human THP-1 leukemia cells (KCLB 40202), human neuroblastoma SH-SY5Y cells (KCLB 22266), Murine Raw 264.7 macrophages (KCLB 40071), and L929 murine fibroblasts (KCLB 10001) were purchased from the KCLB (Seoul, Korea). Cytotoxicity testing was performed using the MTT assay and the WST-1 cell viability assay as previously described.
# [5] = test system: intestinal microbiome; assay: Gut microbiome, 16s rRNA gene-based metagenomics analysis of feces; format: in vivo, BALB/c mice; settings: 30 mg/kg oral once a day for 7 days, BALB/c mice, feces
# Procedure: Six-week-old BALB/c female mice were used for this study (6 mice for each group). Each drug was administered orally at 30 mg/kg once daily for 7 days. Stool was collected, and 16 rRNA gene-based metagenomics analysis was performed. Corn oil was used as the vehicle. The drug-free group received corn oil only. This animal experiment was conducted with the approval of the IACUC of the Soonchunhyang University (approval number: SCH21-0011). Microbiome analysis of collected feces was carried out as previously described with some modifications. Total DNA was extracted from the stool using the QIAamp DNA stool mini kit (Qiagen, Germany) after mechanical disruption using lysing matrix B tubes (MP Biomedicals, USA). V4 region of 16S RNA gene was amplified from extracted DNA with the following primers: forward primer ([…]) and reverse primer ([…]). PCR was performed using the Kappa HiFi hot start kit (KAPA Biosystems, USA) for 16s gene amplification and library preparation. A dsDNA HS assay kit and Qubit 4 fluorimeter (Invitrogen, USA) were used for DNA quantification. After each step, quality was checked using Agilent High Sensitivity DNA Kit and Agilent Bioanalyzer 2100 (Agilent Technologies, USA). Clean-up was performed using AMPure XP beads (Beckman Coulter, UK). The metagenomic library was prepared using a Nextera XT DNA Library Prep Kit (Illumina, USA) and loaded into an iSeq-100 reagent cartridge (Illumina, USA) together with a PhiX Control library (Illumina, USA). A 300-bp paired-end sequencing was performed on an iSeq-100 platform (Illumina, USA). Sequencing data were analyzed using the EzBioCloud server (Chunlab, Korea).
# [6] = test system: M. aubagnense; assay: microbe, parasite or virus in culture; format: cell-based, Mycobacterium aubagnense; settings: Mycolicibacterium aubagnense
# [7] = test system: M. avium; assay: microbe, parasite or virus in culture; format: cell-based; settings: Mycobacterium avium
# [8] = test system: M. neoaurum; assay: microbe, parasite or virus in culture; format: cell-based, Mycobacterium neoaurum; settings: Mycolicibacterium neoaurum
# [9] = test system: M. smegmatis; assay: microbe, parasite or virus in culture; format: cell-based, Mycobacterium smegmatis; settings: Mycolicibacterium smegmatis
# [10] = test system: M. colombiense; assay: microbe, parasite or virus in culture; format: cell-based; settings: Mycobacterium colombiense
# [11] = test system: M. xenopi; assay: microbe, parasite or virus in culture; format: cell-based; settings: Mycobacterium xenopi
# [12] = test system: M. massiliense; assay: microbe, parasite or virus in culture; format: cell-based, Mycobacterium massiliense; settings: Mycobacteroides abscessus
# [13] = test system: M. phlei; assay: microbe, parasite or virus in culture; format: cell-based, Mycobacterium phlei; settings: Mycolicibacterium phlei
# [14] = test system: M. fortuitum; assay: microbe, parasite or virus in culture; format: cell-based, Mycobacterium fortuitum; settings: Mycolicibacterium fortuitum
# [15] = test system: M. peregrinum; assay: microbe, parasite or virus in culture; format: cell-based, Mycobacterium peregrinum; settings: Mycolicibacterium peregrinum
# [16] = test system: M. gilvum; assay: microbe, parasite or virus in culture; format: cell-based, Mycobacterium gilvum; settings: Mycolicibacterium gilvum
# [17] = test system: M. heraklionease; assay: microbe, parasite or virus in culture; format: cell-based; settings: Mycobacterium
# [18] = test system: M. marseiliense; assay: microbe, parasite or virus in culture; format: cell-based; settings: Mycobacterium
# [19] = test system: M. phocaicum; assay: microbe, parasite or virus in culture; format: cell-based, Mycobacterium phocaicum; settings: Mycolicibacterium phocaicum
# [20] = test system: M. bolletii; assay: microbe, parasite or virus in culture; format: cell-based, Mycobacterium bolletii; settings: Mycobacteroides abscessus
# [21] = test system: M. intracellulare; assay: microbe, parasite or virus in culture; format: cell-based; settings: Mycobacterium intracellulare
# [22] = test system: M. conceptionense; assay: microbe, parasite or virus in culture; format: cell-based, Mycobacterium conceptionense; settings: Mycolicibacterium senegalense
# [23] = test system: M. abscessus; assay: microbe, parasite or virus in culture; format: cell-based, Mycobacterium abscessus; settings: Mycobacteroides abscessus
# [24] = test system: M. chitae; assay: microbe, parasite or virus in culture; format: cell-based, Mycobacterium chitae; settings: Mycolicibacterium chitae
# [25] = test system: M. goodie; assay: microbe, parasite or virus in culture; format: cell-based; settings: Mycobacterium
# [26] = test system: M. bovis; assay: microbe, parasite or virus in culture; format: cell-based; settings: Mycobacterium tuberculosis variant bovis
# [27] = test system: M. kyorinense; assay: microbe, parasite or virus in culture; format: cell-based; settings: Mycobacterium kyorinense
# [28] = test system: M. marinum; assay: microbe, parasite or virus in culture; format: cell-based; settings: Mycobacterium marinum
# [29] = test system: M. kansasii; assay: microbe, parasite or virus in culture; format: cell-based; settings: Mycobacterium kansasii
# [30] = test system: M. gordonae; assay: microbe, parasite or virus in culture; format: cell-based; settings: Mycobacterium gordonae
# [31] = test system: clinically isolated MDR, XDR, and TDR M. tuberculosis strains; assay: microbe, parasite or virus in culture; format: cell-based; settings: Mycobacterium tuberculosis
# [32] = test system: M. szulgai; assay: microbe, parasite or virus in culture; format: cell-based; settings: Mycobacterium szulgai
# [33] = test system: M. arupense; assay: microbe, parasite or virus in culture; format: cell-based, Mycobacterium arupense; settings: Mycolicibacter arupensis
# [34] = TA100, 1.5 μg/plate, absence of S9 mix
# [35] = TA1535, 1.5 μg/plate, absence of S9 mix
# [36] = TA98, 1.0 μg/plate, presence of S9 mix
# [37] = TA100, 2.0 μg/plate, presence of S9 mix
# [38] = TA1535, 3.0 μg/plate, presence of S9 mix
# [39] = TA1537, 3.0 μg/plate, presence of S9 mix
# [40] = WP2uvrA (pKM101), 2.0 μg/plate, presence of S9 mix
# [41] = TA98, 5.0 μg/plate, absence of S9 mix
# [42] = TA1537, 80.0 μg/plate, absence of S9 mix
smiles,measurement,setting,value
CCCCOc1ccc2cc(CN3C(=O)CC[C@@H]3C(=O)OC)c3cc(OC)c(OC)cc3c2c1 [PP2R],MIC,[1],> 100 mg/L
same,MIC,[2],> 100 mg/L
[N-]=[N+]=[N-].[Na+] [SA],Individual revertant colony counts,[3]; [34],734 colonies per plate and 732 colonies per plate
same,Mean revertant colonies,[3]; [34],733 colonies per plate
same,Individual revertant colony counts,[3]; [35],588 colonies per plate and 535 colonies per plate
same,Mean revertant colonies,[3]; [35],562 colonies per plate
COC(=O)c1cc2ccc(O)cc2c2cc(OC)c(OC)cc12 [DPGA4],CC50,"[4]; L929, MTT assay (Table S1)",34.9 mg/L
same,CC50,"[4]; RAW, MTT assay (Table S1)",37.5 mg/L
same,MIC,[1],> 100 mg/L
same,SI (CC50/MIC),[1],<0.3
same,MIC,[2],> 100 mg/L
CCCCOc1ccc2cc(C(=O)OC)c3cc(OC)c(OC)cc3c2c1 [DPGA10],CC50,"[4]; L929, MTT assay (Table S1)",21.5 mg/L
same,CC50,"[4]; RAW, MTT assay (Table S1)",> 100 mg/L
same,MIC,[1],> 100 mg/L
same,SI (CC50/MIC),[1],<0.2
same,MIC,[2],> 100 mg/L
Nc1ccc2cc3ccccc3cc2c1 [2-AA],Individual revertant colony counts,[3]; [36],402 colonies per plate and 414 colonies per plate
same,Mean revertant colonies,[3]; [36],408 colonies per plate
same,Individual revertant colony counts,[3]; [37],555 colonies per plate and 578 colonies per plate
same,Mean revertant colonies,[3]; [37],567 colonies per plate
same,Individual revertant colony counts,[3]; [38],96 colonies per plate and 103 colonies per plate
same,Mean revertant colonies,[3]; [38],100 colonies per plate
same,Individual revertant colony counts,[3]; [39],193 colonies per plate and 184 colonies per plate
same,Mean revertant colonies,[3]; [39],189 colonies per plate
same,Individual revertant colony counts,[3]; [40],409 colonies per plate and 430 colonies per plate
same,Mean revertant colonies,[3]; [40],420 colonies per plate
COC(=O)c1cc2ccc(OCC(C)C)cc2c2cc(OC)c(OC)cc12 [DPGA5],CC50,"[4]; L929, MTT assay (Table S1)",40.3 mg/L
same,CC50,"[4]; RAW, MTT assay (Table S1)",> 100 mg/L
same,MIC,[1],> 100 mg/L
same,SI (CC50/MIC),[1],<0.4
same,MIC,[2],> 100 mg/L
"CN[C@H](CC(C)C)C(=O)N[C@H]1C(=O)N[C@@H](CC(N)=O)C(=O)N[C@H]2C(=O)N[C@H]3C(=O)N[C@H](C(=O)N[C@H](C(=O)O)c4cc(O)cc(O)c4-c4cc3ccc4O)[C@H](O)c3ccc(c(Cl)c3)Oc3cc2cc(c3O[C@@H]2O[C@H](CO)[C@@H](O)[C@H](O)[C@H]2O[C@H]2C[C@](C)(N)[C@H](O)[C@H](C)O2)Oc2ccc(cc2Cl)[C@H]1O [VAN, vancomycin]","beta set-significance analysis, pair-wise comparison of gut microbiome",[5],significant
same,difference in phylum or class level taxa compared to drug-free group,[5],significant differences
same,phylogenetic diversity compared to drug-free control group,[5],significantly decreased
O=[N+]([O-])c1ccc2c(c1)Cc1ccccc1-2 [2-NF],Individual revertant colony counts,[3]; [41],705 colonies per plate and 649 colonies per plate
same,Mean revertant colonies,[3]; [41],677 colonies per plate
Nc1c2ccccc2nc2ccccc12 [9-AA],Individual revertant colony counts,[3]; [42],539 colonies per plate and 571 colonies per plate
same,Mean revertant colonies,[3]; [42],555 colonies per plate
CCCCOc1ccc2cc(CO)c3cc(OC)c(OC)cc3c2c1 [DPGA11],CC50,"[4]; L929, MTT assay (Table S1)",73.7 mg/L
same,CC50,"[4]; RAW, MTT assay (Table S1)",> 100 mg/L
same,MIC,[1],> 100 mg/L
same,SI (CC50/MIC),[1],<0.7
same,MIC,[2],> 100 mg/L
COC(=O)[C@H]1CCC(=O)N1Cc1cc2ccc(OC)cc2c2cc(OC)c(OC)cc12 [PP1R],MIC,[1],> 100 mg/L
same,MIC,[2],> 100 mg/L
CCOc1ccc2cc(C(=O)OC)c3cc(OC)c(OC)cc3c2c1 [DPGA7],CC50,"[4]; L929, MTT assay (Table S1)",> 100 mg/L
same,CC50,"[4]; RAW, MTT assay (Table S1)",> 100 mg/L
same,MIC,[1],> 100 mg/L
same,MIC,[2],> 100 mg/L
"CC[C@@H](CO)NCCN[C@@H](CC)CO [EMB, ethambutol]",MIC,[6],50 mg/L
same,MIC,[7],50 mg/L
same,MIC,[8],6.3 mg/L
same,MIC,[9],0.8 mg/L
same,MIC,[10],6.3 mg/L
same,MIC,[11],25 mg/L
same,MIC,[12],100 mg/L
same,MIC,[13],1.6 mg/L
same,MIC,[14],12.5 mg/L
same,MIC,[15],3.1 mg/L
same,MIC,[16],12.5 mg/L
same,MIC,[17],100 mg/L
same,MIC,[18],100 mg/L
same,MIC,[19],0.4 mg/L
same,MIC,[20],> 100 mg/L
same,MIC,[21],3.1 mg/L
same,MIC,[22],50 mg/L
same,MIC,[23],100 mg/L
same,MIC,[24],0.2 mg/L
same,MIC,[1],1.6 mg/L
same,MIC,[25],0.8 mg/L
same,MIC,[26],1.6 mg/L
same,MIC,[27],50 mg/L
same,MIC,[28],3.1 mg/L
same,MIC,[29],1.6 mg/L
same,MIC,[30],> 100 mg/L
same,MIC,[31]; TDR-1,6.3 mg/L
same,MIC,[31]; TDR-2,6.3 mg/L
same,MIC,[31]; TDR-3,6.3 mg/L
same,MIC,[32],3.1 mg/L
same,MIC,[33],0.4 mg/L
COC(=O)c1cc2ccc(OC3CCCCC3)cc2c2cc(OC)c(OC)cc12 [DPGA6],CC50,"[4]; L929, MTT assay (Table S1)",> 100 mg/L
same,CC50,"[4]; RAW, MTT assay (Table S1)",> 100 mg/L
same,MIC,[1],> 100 mg/L
same,MIC,[2],> 100 mg/L
"COC(=O)[C@H]1CCC(=O)N1Cc1cc2ccc(OCc3ccccc3)cc2c2cc(OC)c(OC)cc12 [PP3R, Methyl (R)-1-{[3-(Benzyloxy)-6,7-dimethoxy-9-phenanthryl]methyl}-5-oxopyrrolidine-2-carboxylate]",MIC,[1],> 100 mg/L
same,MIC,[2],> 100 mg/L
